Measurements reported in patent publication US20240228438A1, “SOLID FORMS OF SALTS OF 4-[5-[(3S)-3-AMINOPYRROLIDINE-1-CARBONYL]-2-[2-FLUORO-4-(2- HYDROXY-2-ETHYLPROPYL)PHENYL]PHENYL]-2-FLUORO-BENZONITRILE” (Astex Pharmaceuticals, Inc., priority 2021, published 2024).
Structures can show the parent of a compound that is named as a salt. One block for each compound: values may come before it.

Legend:
[1] = Stability testing: water absorption of salt forms at 40° C. and 75% RH for five days (KF); assay type: physicochemical; settings: for Initial KF: water content before exposure; for KF water content after 5 days at 40° C./75% RH: open vial covered with Kim wipe
Protocol: The stability of different salt forms was tested. The salts were placed in 20-mL scintillation vials and covered with Kim wipe, and the resulting vials were exposed to 40° C. and 75% RH (relative humidity) for five days. The samples were analyzed for water absorption.

[2] = Aqueous solubility of the salt form (overall assessment); assay type: physicochemical; settings: in words

Initial KF [1]: 0.76%
Structure (SMILES): CC(C)(O)Cc1ccc(-c2ccc(C(=O)N3CC[C@H](N)C3)cc2-c2ccc(C#N)c(F)c2)c(F)c1 [esylate Form IVA, 4-[5-[(3S)-3-aminopyrrolidine-1-carbonyl]-2-[2-fluoro-4-(2-hydroxy-2-methylpropyl)phenyl]phenyl]-2-fluoro-benzonitrile esylate]

KF water content after 5 days at 40° C./75% RH ([1]; five days): 1.57%
hygroscopicity ([1]; overall assessment, in words): slightly hygroscopic
residual water ([1]; overall assessment, in words): low residual water
Initial KF [1]: 0.69%
Structure (SMILES): CC(C)(O)Cc1ccc(-c2ccc(C(=O)N3CC[C@H](N)C3)cc2-c2ccc(C#N)c(F)c2)c(F)c1 [hemi-fumarate Form I, 4-[5-[(3S)-3-aminopyrrolidine-1-carbonyl]-2-[2-fluoro-4-(2-hydroxy-2-methylpropyl)phenyl]phenyl]-2-fluoro-benzonitrile hemi fumarate]

Initial KF ([1]; maleate): 1.08%
Structure (SMILES): CC(C)(O)Cc1ccc(-c2ccc(C(=O)N3CC[C@H](N)C3)cc2-c2ccc(C#N)c(F)c2)c(F)c1 [maleate Form V, 4-[5-[(3S)-3-aminopyrrolidine-1-carbonyl]-2-[2-fluoro-4-(2-hydroxy-2-methylpropyl)phenyl]phenyl]-2-fluoro-benzonitrile maleate]

Initial KF ([1]; mesylate): 2.55%
Structure (SMILES): CC(C)(O)Cc1ccc(-c2ccc(C(=O)N3CC[C@H](N)C3)cc2-c2ccc(C#N)c(F)c2)c(F)c1 [mesylate Form IIIA, 4-[5-[(3S)-3-aminopyrrolidine-1-carbonyl]-2-[2-fluoro-4-(2-hydroxy-2-methylpropyl)phenyl]phenyl]-2-fluoro-benzonitrile mesylate]

moisture take-up under the tested conditions ([1]; 40° C./75% RH, five days, result in words): did not take-up moisture
KF water content after 5 days at 40° C./75% RH ([1]; five days): 0.63%
Initial KF [1]: 0.61%
Structure (SMILES): CC(C)(O)Cc1ccc(-c2ccc(C(=O)N3CC[C@H](N)C3)cc2-c2ccc(C#N)c(F)c2)c(F)c1 [mono-fumarate Form VI]

KF water content after 5 days at 40° C./75% RH ([1]; five days, mono-oxalate): 4.46%
hygroscopicity ([1]; overall assessment, in words): slightly hygroscopic
Initial KF ([1]; mono-oxalate): 1.06%
aqueous solubility [2]: good aqueous solubility
Structure (SMILES): CC(C)(O)Cc1ccc(-c2ccc(C(=O)N3CC[C@H](N)C3)cc2-c2ccc(C#N)c(F)c2)c(F)c1 [mono-oxalate (from EtOH) Form II, 4-[5-[(3S)-3-aminopyrrolidine-1-carbonyl]-2-[2-fluoro-4-(2-hydroxy-2-methylpropyl)phenyl]phenyl]-2-fluoro-benzonitrile mono-oxalate]

KF water content after 5 days at 40° C./75% RH ([1]; five days): 4.99%
Initial KF [1]: 2.66%
Structure (SMILES): CC(C)(O)Cc1ccc(-c2ccc(C(=O)N3CC[C@H](N)C3)cc2-c2ccc(C#N)c(F)c2)c(F)c1 [mono-oxalate salt (from IPA)]
